From patent US12454529B2, “Piperazine cyclic ureas” (SIRONAX LTD., priority 2020, dated 2025)
pEC50: −log10 of the molar value.

test system: HT-29 cells; experiment: HT-29 cell necrosis/necroptosis inhibition (TNF-α + SMAC mimetic + zVAD-FMK; CellTiter-Glo cell viability); type: cell-based; conditions: Homo sapiens, HT-29, 20 h, read-out: EC50 (Cell activity; Necrosis/Necroptosis Inhibitory Activity, Compounds 1-142)
How it was run: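 Necroptosis was driven by TNF-α 10 ng/ml plus SMAC mimetic 6 μM and zVAD-FMK 10 μM in serum-free medium, with compounds as a 10-point threefold titration. After 20 h at 37 °C, ATP-based luminescence was read; EC50 values are geometric means of duplicate curves.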

| SMILES | pEC50 |
| --- | --- |
| Cc1nn(C[C@@H]2CO2)c(C)c1-c1nc(N2CCN(C(=O)N3N=CC[C@H]3c3cc(F)cc(C#N)c3)CC2)ncc1F [Compound 133, 3-((S)-1-(4-(4-(3,5-dimethyl-1-(((R)-oxiran-2-yl)methyl)-1H-pyrazol-4-yl)-5-fluoropyrimidin-2-yl)piperazine-1-carbonyl)-4,5-dihydro-1H-pyrazol-5-yl) fluorobenzonitrile] | 7.00 to 10.00 |

same assay, conditions: Homo sapiens, HT-29, 20 h, read-out: EC50 (Cell activity; Necrosis/Necroptosis Inhibitory Activity, Compounds 143-323)

| SMILES | pEC50 |
| --- | --- |
| Cc1ncc(C#N)n1-c1nc(N2CCN(C(=O)N3N=CC[C@H]3c3cc(F)cc(C#N)c3)CC2)ncc1F [Compound 148, 1-(2-(4-((S)-5-(3-cyano-5-fluorophenyl)-4,5-dihydro-1H-pyrazole-1-carbonyl)piperazin-1-yl)-5-fluoropyrimidin-4-yl)-2-methyl-1H-imidazole-5-carbonitrile] | 7.00 to 10.00 |

same assay, conditions: Homo sapiens; HT-29 cells, TNF-α 10 ng/ml + SMAC mimetic 6 μM + zVAD-FMK 10 μM, 20 hours; geometric mean, 10 points in duplicate; read-out: EC50 (Cell activity; Necrosis/Necroptosis Inhibitory Activity, Compounds 1-142)

| SMILES | pEC50 |
| --- | --- |
| N#Cc1cn(-c2ccnc(N3CCN(C(=O)N4N=CC[C@H]4c4cc(F)cc(F)c4)CC3)n2)cn1 [Compound 2, (S)-1-(2-(4-(5-(3,5-difluorophenyl)-4,5-dihydro-1H-pyrazole-1-carbonyl)piperazin-1-yl)pyrimidin-4-yl)-1H-imidazole-4-carbonitrile] | 7.00 to 10.00 |
| N#Cc1cc(F)cc([C@@H]2CC=NN2C(=O)N2CCN(c3ncc(F)c(-c4ccn(CC(N)=O)n4)n3)CC2)c1 [Compound 76, (S)-2-(3-(2-(4-(5-(3-cyano-5-fluorophenyl)-4,5-dihydro-1H-pyrazole-1-carbonyl)piperazin-1-yl)-5-fluoropyrimidin-4-yl)-1H-pyrazol-1-yl)acetamide] | 7.00 to 10.00 |
| Cc1nn(CC2CCOCC2)c(C)c1-c1nc(N2CCN(C(=O)N3N=CC[C@H]3c3cc(F)cc(F)c3)CC2)ncc1F [Compound 122, (S)-(5-(3,5-difluorophenyl)-4,5-dihydro-1H-pyrazol-1-yl)(4-(4-(3,5-dimethyl-1-((tetrahydro-2H-pyran-4-yl)methyl)-1H-pyrazol-4-yl)-5-fluoropyrimidin-2-yl)piperazin-1-yl)methanone] | 7.00 to 10.00 |
| Cn1nccc1-c1nc(N2CCN(C(=O)N3N=CC[C@H]3c3cc(F)cc(F)c3)CC2)ncc1F [Compound 28, (S)-(5-(3,5-difluorophenyl)-4,5-dihydro-1H-pyrazol-1-yl)(4-(5-fluoro-4-(1-methyl-1H-pyrazol-5-yl)pyrimidin-2-yl)piperazin-1-yl)methanone] | 7.00 to 10.00 |
| Cn1cc(-c2nc(N3CCN(C(=O)N4N=CC[C@H]4c4cc(F)cc(F)c4)CC3)ncc2F)ccc1=O [Compound 89, (S)-5-(2-(4-(5-(3,5-difluorophenyl)-4,5-dihydro-1H-pyrazole-1-carbonyl)piperazin-1-yl)-5-fluoropyrimidin-4-yl)-1-methylpyridin-2(1H)-one] | 7.00 to 10.00 |
| Cc1nn(CC2CCOC2)c(C)c1-c1nc(N2CCN(C(=O)N3N=CC[C@H]3c3cc(F)cc(C#N)c3)CC2)ncc1F (stereo partly drawn) [Compound 132, 3-((5S)-1-(4-(4-(3,5-dimethyl-1-((tetrahydrofuran-3-yl)methyl)-1H-pyrazol-4-yl)-5-fluoropyrimidin-2-yl)piperazine-1-carbonyl)-4,5-dihydro-1H-pyrazol-5-yl)-5-fluorobenzonitrile] | 7.00 to 10.00 |
| N#Cc1cncc([C@@H]2CC=NN2C(=O)N2CCN(c3nccc(-c4cc[nH]n4)n3)CC2)c1 [Compound 38, (S)-5-(1-(4-(4-(1H-pyrazol-3-yl)pyrimidin-2-yl)piperazine-1-carbonyl)-4,5-dihydro-1H-pyrazol-5-yl)nicotinonitrile] | 7.00 to 10.00 |
| Cc1[nH]nnc1-c1nc(N2CCN(C(=O)N3N=CC[C@H]3c3cc(F)cc(F)c3)CC2)ncc1F [Compound 30, (S)-(5-(3,5-difluorophenyl)-4,5-dihydro-1H-pyrazol-1-yl)(4-(5-fluoro-4-(5-methyl-1H-1,2,3-triazol-4-yl)pyrimidin-2-yl)piperazin-1-yl)methanone] | 7.00 to 10.00 |
| Cn1nc(CO)nc1-c1nc(N2CCN(C(=O)N3N=CC[C@H]3c3cc(F)cc(C#N)c3)CC2)ncc1F [Compound 72, (S)-3-fluoro-5-(1-(4-(5-fluoro-4-(3-(hydroxymethyl)-1-methyl-1H-1,2,4-triazol-5-yl)pyrimidin-2-yl)piperazine-1-carbonyl)-4,5-dihydro-1H-pyrazol-5-yl)benzonitrile] | 7.00 to 10.00 |
| Cc1nn(-c2nc(N3CCN(C(=O)N4N=CC[C@H]4c4cc(F)cc(C#N)c4)CC3)ncc2F)c(=O)n1C [Compound 96, (S)-3-(1-(4-(4-(3,4-dimethyl-5-oxo-4,5-dihydro-1H-1,2,4-triazol-1-yl)-5-fluoropyrimidin-2-yl)piperazine-1-carbonyl)-4,5-dihydro-1H-pyrazol-5-yl)-5-fluorobenzonitrile] | 7.00 to 10.00 |
| Cc1nnc(-c2nc(N3CCN(C(=O)N4N=CC[C@H]4c4cc(F)cc(C#N)c4)CC3)ncc2F)s1 [Compound 64, (S)-3-fluoro-5-(1-(4-(5-fluoro-4-(5-methyl-1,3,4-thiadiazol-2-yl)pyrimidin-2-yl)piperazine-1-carbonyl)-4,5-dihydro-1H-pyrazol-5-yl)benzonitrile] | 7.00 to 10.00 |
| O=C(N1CCN(c2ccnc(-c3ccc[nH]3)n2)CC1)N1N=CC[C@H]1c1cc(F)cc(F)c1 [Compound 5, (S)-(4-(2-(1H-pyrrol-2-yl)pyrimidin-4-yl)piperazin-1-yl)(5-(3,5-difluorophenyl)-4,5-dihydro-1H-pyrazol-1-yl)methanone] | 7.00 to 10.00 |
| Cn1nccc1-c1nc(N2CCN(C(=O)N3N=CC[C@H]3c3cc(F)cc(C#N)c3)CC2)ncc1F [Compound 69, (S)-3-fluoro-5-(1-(4-(5-fluoro-4-(1-methyl-1H-pyrazol-5-yl)pyrimidin-2-yl)piperazine-1-carbonyl)-4,5-dihydro-1H-pyrazol-5-yl)benzonitrile] | 7.00 to 10.00 |

same assay, conditions: Homo sapiens; HT-29 cells, TNF-α 10 ng/ml + SMAC mimetic 6 μM + zVAD-FMK 10 μM, 20 hours; geometric mean, 10 points in duplicate; read-out: EC50 (Cell activity; Necrosis/Necroptosis Inhibitory Activity, Compounds 143-323)

| SMILES | pEC50 |
| --- | --- |
| Cc1nn(-c2ccnc(N3CCN(C(=O)N4N=CC[C@H]4c4cc(F)cc(C#N)c4)CC3)n2)c(C)c1S(C)(=O)=O [Compound 206, (S)-3-(1-(4-(4-(3,5-dimethyl-4-(methylsulfonyl)-1H-pyrazol-1-yl)pyrimidin-2-yl)piperazine-1-carbonyl)-4,5-dihydro-1H-pyrazol-5-yl)-5-fluorobenzonitrile] | 7.00 to 10.00 |
| Cc1nc(C)n(-c2nc(N3CCN(C(=O)N4N=CCC4c4cc(C#N)cc(F)c4F)CC3)ncc2F)n1 (stereo not shown) [Compound 238, 3-(1-(4-(4-(3,5-dimethyl-1H-1,2,4-triazol-1-yl)-5-fluoropyrimidin-2-yl)piperazine-1-carbonyl)-4,5-dihydro-1H-pyrazol-5-yl)-4,5-difluorobenzonitrile] | 7.00 to 10.00 |
| Cc1nc(C)n(-c2nc(N3CCN(C(=O)N4N=CC[C@@H]4c4cnc(C)s4)CC3)ncc2F)n1 [Compound 239, (R)-(4-(4-(3,5-dimethyl-1H-1,2,4-triazol-1-yl)-5-fluoropyrimidinyl)piperazin-1-yl)(5-(2-methylthiazol-5-yl)-4,5-dihydro-1H-pyrazol-1-yl)methanone] | 5.00 to 6.00 |
| Cc1csc(C2CC=NN2C(=O)N2CCN(c3cc(-c4c(C)cnn4C)ncc3F)CC2)n1 (stereo not shown) [Compound 157, (4-(2-(1,4-dimethyl-1H-pyrazol-5-yl)-5-fluoropyridin-4-yl)piperazin-1-yl)(5-(4-methylthiazol-2-yl)-4,5-dihydro-1H-pyrazol-1-yl)methanone] | 6.00 to 7.00 |
| Cc1nc(C)n(-c2nc(N3CCN(C(=O)N4N=CC[C@H]4c4cc(F)cc(F)c4)CC3)c(F)cc2F)n1 [Compound 232, (S)-(5-(3,5-difluorophenyl)-4,5-dihydro-1H-pyrazol-1-yl)(4-(6-(3,5-dimethyl-1H-1,2,4-triazol-1-yl)-3,5-difluoropyridin-2-yl)piperazin-1-yl)methanone] | 7.00 to 10.00 |
| CCn1cnn(-c2nc(N3CCN(C(=O)N4N=CC[C@H]4c4cc(F)cc(F)c4)CC3)ncc2F)c1=O [Compound 199, (S)-2-(2-(4-(5-(3,5-difluorophenyl)-4,5-dihydro-1H-pyrazole-1-carbonyl)piperazin-1-yl)-5-fluoropyrimidin-4-yl)-4-ethyl-2,4-dihydro-3H-1,2,4-triazol-3-one] | 7.00 to 10.00 |
| Cc1nc(C2CC=NN2C(=O)N2CCN(c3nc(-c4c(C)cnn4C)ccc3F)CC2)cs1 (stereo not shown) [Compound 298, (4-(6-(1,4-dimethyl-1H-pyrazol-5-yl)-3-fluoropyridin-2-yl)piperazin-1-yl)(5-(2-methylthiazol-4-yl)-4,5-dihydro-1H-pyrazol-1-yl)methanone] | 7.00 to 10.00 |
| Cc1nn(-c2cc(N3CCN(C(=O)N4N=CC[C@H]4c4cc(F)cc(C#N)c4)CC3)ncn2)c(C)c1C(N)=O [Compound 282, (S)-1-(6-(4-(5-(3-cyano-5-fluorophenyl)-4,5-dihydro-1H-pyrazole-1-carbonyl)piperazin-1-yl)pyrimidin-4-yl)-3,5-dimethyl-1H-pyrazole-4-carboxamide] | 7.00 to 10.00 |
| Cc1c(-c2nc(N3CCN(C(=O)N4N=CC[C@H]4c4cc(F)cc(C#N)c4)CC3)ncc2F)c(CO)nn1C [Compound 165, (S)-3-fluoro-5-(1-(4-(5-fluoro-4-(3-(hydroxymethyl)-1,5-dimethyl-1H-pyrazol-4-yl)pyrimidin-2-yl)piperazine-1-carbonyl)-4,5-dihydro-1H-pyrazol-5-yl)benzonitrile] | 7.00 to 10.00 |
| Cc1nc(C#N)nn1-c1nc(N2CCN(C(=O)N3N=CC[C@H]3c3cncc(F)c3)CC2)ncc1F [Compound 255, (S)-1-(5-fluoro-2-(4-(5-(5-fluoropyridin-3-yl)-4,5-dihydro-1H-pyrazole-1-carbonyl)piperazin-1-yl)pyrimidin-4-yl)-5-methyl-1H-1,2,4-triazole-3-carbonitrile] | 7.00 to 10.00 |
